The results in this text go back to patent publication US20070066680A1, “Benzofurans and benzothiophenes” (priority 2003, published 2007).

Marks after values point to notes of the source that are not given here.

One assay deals with insulin secretion. As to the kind of experiment: Test of insulin secretion according to Endocrinology, 1992 vol. 130 (1) pp. 167-178. Format: cell-based. As to conditions: Rattus norvegicus, INS1; compounds tested at 10^−5 M; read-out: SEC INS1 (% of insulin secretion). The method, then: Test of Insulin Secretion According to the Method Described in Endocrinology, 1992 vol. 130 (1) pp. 167-178
The insulin-secreting activities are collated in Table B. The compounds according to the invention were tested at a concentration of 10^−5 M.

Assay [1] deals with isolated islets of Langerhans. Nature of the assay: Insulin secretion in isolated rat islets of Langerhans, static incubation, RIA. Type of assay: cell-based. As to conditions: 90 minutes incubation, stimulation if factor >= 130%; for Insulin secretion stimulation factor, Product + G2.8 mM: glucose 2.8 mM; for Insulin secretion stimulation factor, Product + G8 mM: glucose 8 mM. The method, then: Study of the Activity on Isolated Rat Islets
Effect of the chemical compounds on insulin secretion as a function of the glucose concentration, in vitro, in isolated islets of Langerhans in static incubation (Table C):
The islets of Langerhans obtained by digestion of exocrine pancreatic tissue with collagenase, and then purified on Ficoll gradient, are incubated for 90 minutes in the presence of two concentrations of glucose, (2.8 mM or 8 mM), in the presence or absence of the chemical compound. The insulin secretion is assayed by RIA in the incubation medium.
The potential of the various chemical compounds to stimulate insulin secretion is estimated by calculating the stimulation factor*.
A compound stimulates the secretion of insulin if this factor is greater than or equal to 130% for a given dose of glucose. [formula] • where: • G=secretion of insulin (pmol/min. islet) in the presence of glucose alone
G+product=secretion of insulin (pmol/min. islet) in the presence of the same concentration of glucose and of the test chemical compound.

A further assay concerns NOSTZ diabetic rats. Nature of the assay: Antidiabetic activity (glycaemia) in NOSTZ diabetic rats. As to conditions: repeated for 4 days, blood two hours after the fourth treatment. Format: in vivo, rat. The method, then:
Study of the Antidiabetic Activity in NOSTZ rats Effect/Dose of compound 15, in vivo, in the case of NOSTZ diabetic rats (Table D): NOSTZ rats, made diabetic by injection of steptozotocin on the day of birth (Portha et al.; 1974), are treated, orally, daily by administration of 50-100-200 mg/kg of body weight of compound 15, of 200 mg/kg of metformin (reference antidiabetic agent) or of methylcellulose (controls). Blood samples are taken from the anaesthetized animal two hours after the fourth treatment. The glycaemia is measured via the colorimetric method using glucose dehydrogenase. The antidiabetic activity of the compounds of the formula (I) orally was determined on an experimental model of non-insulin-dependent diabetes, induced in rats with steptozotocin. The model of non-insulin-dependent diabetes is obtained in the rats by means of a neonatal injection of steptozotocin. The diabetic rats used are eight weeks old. The animals are housed, from the day of birth to the day of the experiment, in an animal house at a regulated temperature of 21 to 22° C. and subjected to a fixed cycle of light (from 7 a.m. to 7 p.m.) and darkness (from 7 p.m. to 7 a.m.). Their food consisted of a maintenance diet, and water and food were given “ad libitum”, with the exception of fasting two hours before the tests, during which period the food is removed (post-absorptive state). The rats are treated orally for one (D1) or four (D4) days with the test product. Two hours after the final administration of the product and 30 minutes after anaesthetizing the animals with pentobarbital sodium (Nembutal®), a 300 μl blood sample is taken from the end of the tail.

`O=C(COc1c(C(=O)c2ccccc2)sc2ccccc12)c1ccc(Cl)cc1` [Product 1]: in the assay with insulin secretion, the activity at 10 µM is 206%. In assay [1] (product 10^−5 M), the “Insulin secretion stimulation factor, Product + G2.8 mM” value was found to be 98% and the “Insulin secretion stimulation factor, Product + G8 mM” value turned out to be 135%.
In the case of `COc1ccccc1C(=O)COc1c(C(=O)c2ccccc2)sc2ccccc12` [Product 3], the activity at 10 µM in the assay with insulin secretion was 244%.
Still for that read-out and setting: the figure for `COc1cccc(C(=O)COc2c(C(=O)c3ccccc3)sc3ccccc23)c1` [Product 8] is 193%.
Still for that read-out and setting: the figure for `COc1ccc(C(=O)COc2c(C(=O)c3ccccc3)sc3ccccc23)c(OC)c1` [Product 14] is 287%.
In the case of `CC(C)(C)C(=O)COc1c(C(=O)c2ccccc2)sc2ccccc12` [Product 15, 1-(2-benzoylbenzo[b]thiophen-3-yloxy)-3,3-dimethylbutan-2-one], the activity at 10 µM with insulin secretion was found to be 207%. The “Insulin secretion stimulation factor, Product + G2.8 mM” value in assay [1] (product 10^−5 M) is reported as 119%; in assay [1] (product 10^−6 M) it was 125%. The “Insulin secretion stimulation factor, Product + G8 mM” value is reported as 152% in assay [1] (product 10^−5 M) and 183% in assay [1] (product 10^−6 M). For the same compound, the “Percentage of variation of glycaemia relative to the controls” value in the assay on NOSTZ diabetic rats (50 mg/kg/day orally) was −13%*; with NOSTZ diabetic rats (100 mg/kg/day orally), −23%**; in the assay on NOSTZ diabetic rats (200 mg/kg/day orally), −18%**.
For `N#Cc1ccc(C(=O)c2sc3ccccc3c2OCc2ccccc2C#N)cc1` [Product 42], the activity at 10 µM with insulin secretion stood at 283%.
For the compound `N#Cc1ccc(C(=O)c2sc3ccccc3c2OCc2cccc(C#N)c2)cc1` [Product 43], the activity at 10 µM in the assay with insulin secretion was 257%. In assay [1] (product 10^−5 M), the “Insulin secretion stimulation factor, Product + G2.8 mM” value is listed as 108% and the “Insulin secretion stimulation factor, Product + G8 mM” value stood at 135%.
Regarding `N#Cc1ccc(C(=O)c2sc3ccccc3c2OCc2c(Cl)cccc2Cl)cc1` [Product 55], in the assay with insulin secretion, the activity at 10 µM was determined as 174%.
With `N#Cc1ccc(C(=O)c2sc3ccccc3c2OCc2ccccc2)cc1` [Product 59], the activity at 10 µM in the assay on insulin secretion was found to be 229%.
Turning to `CS(=O)(=O)c1ccc(COc2c(C(=O)c3ccc(C#N)cc3)sc3ccccc23)cc1` [Product 66], the activity at 10 µM in the assay with insulin secretion is 202%.
The same measure, in the same setting: for `N#Cc1ccc(C(=O)c2sc3ccccc3c2OCC(=O)c2ccccc2)cc1` [Product 69] the value was 179%; for `COc1ccccc1C(=O)COc1c(C(=O)c2ccc(C#N)cc2)sc2ccccc12` [Product 70], 189%.
The same measure, in the same setting: the figure for `Cc1ccc(C(=O)COc2c(C(=O)c3ccc(C#N)cc3)sc3ccccc23)cc1` [Product 72] is 185%; for `COc1ccccc1C(=O)COc1c(C(=O)c2ccccc2)oc2ccccc12` [Product 86] it is 164%.
For the compound `CN(C)C(=N)N=C(N)N` [metformin, reference compound], the “Percentage of variation of glycaemia relative to the controls” value in the assay with NOSTZ diabetic rats (200 mg/kg/day orally) is −29%**.
